Broadly, the IC50 is the concentration that gives 50% inhibition.

Assay type in all cases: biochemical
The subject of one test is MYC. In words: In vitro transcription-translation (IVTT) assay, MYC reporter. Particulars: HeLa S3 lysate, 2 hrs at 30° C. Summed up:
(§1)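 Reporter: mCherry, P2A, then 3×FLAG-target peptide-sfGFP fusion, IRES-initiated; HeLa S3 lysate IVTT; cpd dilutions 30 μM−0.1 μM half-log in 100% DMSO (dilution-plate conc); DNA added last; 2 h, 30° C; PBS quench.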

For a further test, the system named is CCND1. The test can be described thus: In vitro transcription-translation (IVTT) assay, CCND1 reporter. The note with it: HeLa S3 lysate, sfGFP/mCherry ratio. The gist of the method: as §1
The next test has as its system ALK. In words: In vitro transcription-translation (IVTT) assay, ALK reporter. The note with it: HeLa S3 lysate, sfGFP/mCherry ratio, 2 hrs at 30° C. Summed up: as §1
The next test has as its system KRAS G12D. The test can be described thus: In vitro transcription-translation (IVTT) assay, KRAS G12D reporter. Particulars: HeLa S3 lysate, sfGFP/mCherry ratio, 2 hrs at 30° C. The gist of the method:
as §1

The next test concerns CCNTB1. In words: In vitro transcription-translation (IVTT) assay, CCNTB1 reporter. The note with it: HeLa S3 lysate, sfGFP/mCherry ratio. On the procedure: In vitro transcription-translation assay setup: Each assay includes a master mix containing lysate and shared components, a 96-well plate containing compound titrations for testing, a 96-well DNA plate with reporter constructs to be tested, 96-well skirted PCR plates, and 96-well flat-bottom, black, fluorescent assay plates. Reaction materials setup: (A) Master mix—15 mL conical tube (3 mL of HeLa S3 Lysate described above; 0.6 mL of ThermoFisher Accessory Proteins (#88882); 1.2 ml of ThermoFisher Reaction Mix (#88882); 0.54 mL of nuclease-free Water); (B) 96-Well Master Mix+Compound Plate (Half-log dilutions (30 μM−0.1 μM) of 4 compounds of interest are prepared in 100% DMSO); 96-Well DNA Plate (Five DNA constructs are plated into single columns within the plate. Row 1 of the column contains nuclease free H2O, all other wells contain 110 ng/μL plasmid DNA). Reactions are started by mixing 155 μL of master mix and 3.5 μL of compound serial dilutions, then 9.1 μL of master mix+compound mixture is aliquoted across 5 96-well plates. Reactions begin with final addition of 2 μL of DNA for a 11.1 μL reaction volume in each well. The entire plate is sealed, and incubated for 2 hrs at 30° C. After 2 hrs, quench the assay using 45 μL of PBS, and transfer 50 μL to a flat-bottom black microplate Quantify the sfGFP and mCherry signals from each well on each plate, taking 3 reads of each plate, and perform data analysis below.
In vitro transcription-translation assay data analysis: Each plate is read three times in channels for both sfGFP and mCherry signals. The average signal across these 3 reads is then calculated for further analysis. Control wells containing no DNA reporter are subtracted from reporter wells in the same column to remove auto-fluorescence of the lysate. Then, the ratio of sfGFP/mCherry is calculated per well, and these ratios are averaged across the triplicate experiments on the same plate. Finally, the ratio of each titration concentration is normalized to the no drug control to create the normalized stalling metric. The error on this measurement is determined by propagating error through the averaging and normalization steps. Values are plotted and fit for IC50 determination for each test sequence and titration of compound.

The next test relates to MCL-1. The test can be described thus: In vitro transcription-translation (IVTT) assay, MCL-1 reporter. The note with it: HeLa S3 lysate, sfGFP/mCherry ratio, 2 hrs at 30° C. Summed up:
as §1

Setting [1] is: IVTT assay, MYC reporter, normalized sfGFP/mCherry ratio, half-log dilutions 30 μM-0.1 μM.

For the compound `COc1ccc(C[C@H]2NC[C@H](O)[C@H]2OC(=O)NCCc2ncc[nH]2)cc1` [V187816, (2R,3S,4S)-4-hydroxy-2-[(4-methoxyphenyl)methyl]pyrrolidin-3-yl N-[2-(1H-imidazol-2-yl)ethyl]carbamate], the IC50 is 20 to 30 µM in the test with MYC (sfGFP/mCherry ratio), greater than 30 µM with CCND1 (2 hrs at 30° C.), less than 10 µM with ALK and greater than 30 µM in the test on KRAS G12D.
In the case of `COc1ccc(C[C@H]2NC[C@H](O)[C@H]2OC(=O)NCCc2nc3ccc(Cl)cc3[nH]2)cc1` [V187821, (2R,3S,4S)-4-hydroxy-2-[(4-methoxyphenyl)methyl]pyrrolidin-3-yl N-[2-(5-chloro-3H-1,3-benzodiazol-2-yl)ethyl]carbamate], the IC50 with MYC (sfGFP/mCherry ratio) was 10 to 20 µM; in the test on CCND1 (2 hrs at 30° C.) it was greater than 30 µM; with ALK it was less than 10 µM; in the test on KRAS G12D, greater than 30 µM.
For the compound `COc1ccc(C[C@H]2NC[C@H](O)[C@H]2OC(=O)NCc2ncc[nH]2)cc1` [V187815, (2R,3S,4S)-4-hydroxy-2-[(4-methoxyphenyl)methyl]pyrrolidin-3-yl N-(1H-imidazol-2-ylmethyl)carbamate], the IC50 in the test on MYC (sfGFP/mCherry ratio) is less than 10 µM; with CCND1 (2 hrs at 30° C.) it was 10 to 20 µM; with ALK, less than 10 µM; in the test with KRAS G12D it was 20 to 30 µM.
On to `O=C(NCC[C@H]1CCCN1)O[C@@H]1[C@@H](O)CN[C@@H]1Cc1ccc(-c2ccc(C(F)(F)F)cc2)cc1` [V192038, (2R,3S,4S)-4-hydroxy-2-{[4′-(trifluoromethyl)-[1,1′-biphenyl]-4-yl]methyl}-pyrrolidin-3-yl N-{2-[(2R)-pyrrolidin-2-yl]ethyl}carbamate; Trifluoroacetic Acid], for which the IC50 in the test with MYC (setting [1]), in the test with CCND1 (IVTT assay) and in the test with CCNTB1 was greater than 30 µM in each case.
Consider `COC1CCC(CC2NCC(O)C2OC(O)NCCOCC2CNNN2)CC1` (stereo not shown) [V187723, 4-[hydroxy({[2-(1,2,3-triazolidin-4-ylmethoxy)ethyl]amino})methoxy]-5-[(4-methoxycyclohexyl)methyl]pyrrolidin-3-ol; trifluoroacetic acid], for which the concentration for half-maximal inhibition (IC50) in the test with MYC (sfGFP/mCherry ratio) was 10 to 20 µM; with CCND1 (2 hrs at 30° C.), 20 to 30 µM; with ALK, less than 10 µM; with KRAS G12D, greater than 30 µM.
Consider `COc1ccc(C[C@H]2NC[C@H](O)[C@H]2OC(=O)NCCCCCn2ccnc2)cc1` [V187636, (2R,3S,4S)-4-hydroxy-2-[(4-methoxyphenyl)methyl]pyrrolidin-3-yl N-[5-(imidazol-1-yl)pentyl]carbamate; trifluoroacetic acid], for which the IC50 in the test on MYC (sfGFP/mCherry ratio), with ALK, in the test on MCL-1 and with KRAS G12D was less than 10 µM each time.
With `COc1ccc(C[C@H]2NC[C@H](O)[C@H]2OC(=O)NCCc2ccon2)cc1` [V187700, (2R,3S,4S)-4-hydroxy-2-[(4-methoxyphenyl)methyl]pyrrolidin-3-yl N-[2-(1,2-oxazol-3-yl)ethyl]carbamate; trifluoroacetic acid], the half-inhibitory concentration (IC50) in the test with MYC (sfGFP/mCherry ratio), with CCND1 (2 hrs at 30° C.), in the test with ALK, in the test on MCL-1 and in the test with KRAS G12D was less than 10 µM each time.
For the compound `COc1ccc(C[C@H]2NC[C@H](O)[C@H]2OC(=O)NCc2cocn2)cc1` [V187767, (2R,3S,4S)-4-hydroxy-2-[(4-methoxyphenyl)methyl]pyrrolidin-3-yl N-(1,3-oxazol-4-ylmethyl)carbamate], the IC50 in the test with MYC (sfGFP/mCherry ratio), in the test on CCND1 (2 hrs at 30° C.), in the test on ALK, with MCL-1 and with KRAS G12D was less than 10 µM throughout.
For `COc1ccc(C[C@H]2NC[C@H](O)[C@H]2OC(=O)NCCCCCO)cc1` [V187587, (2R,3S,4S)-4-hydroxy-2-[(4-methoxyphenyl)methyl]pyrrolidin-3-yl N-(5-hydroxypentyl)carbamate], the IC50 in the test with MYC (sfGFP/mCherry ratio), in the test on CCND1 (2 hrs at 30° C.), in the test with ALK, with MCL-1 and in the test on KRAS G12D was less than 10 µM throughout.
`COc1ccc(C[C@H]2NC[C@H](O)[C@H]2OC(=O)NCCc2nc3ccccc3[nH]2)cc1` [V187820, (2R,3S,4S)-4-hydroxy-2-[(4-methoxyphenyl)methyl]pyrrolidin-3-yl N-[2-(1H-1,3-benzodiazol-2-yl)ethyl]carbamate]: the half-inhibitory concentration (IC50) with MYC (sfGFP/mCherry ratio) is 10 to 20 µM; in the test with CCND1 (2 hrs at 30° C.), 20 to 30 µM; in the test with ALK, less than 10 µM; in the test on KRAS G12D, greater than 30 µM.
`COc1ccc(C[C@H]2NC[C@H](O)[C@H]2OC(=O)NCCc2ncc(C)[nH]2)cc1` [V187818, (2R,3S,4S)-4-hydroxy-2-[(4-methoxyphenyl)methyl]pyrrolidin-3-yl N-[2-(4-methyl-3H-imidazol-2-yl)ethyl]carbamate]: the IC50 with MYC (sfGFP/mCherry ratio) is 20 to 30 µM; with CCND1 (2 hrs at 30° C.), greater than 30 µM; in the test on ALK, less than 10 µM; with KRAS G12D, greater than 30 µM.
Take `O=C(NCC[C@H]1CCCN1)O[C@@H]1[C@@H](O)CN[C@@H]1Cc1ccc(-c2ccccc2)cc1` [V192036, (2R,3S,4S)-2-{[1,1′-biphenyl]-4-ylmethyl}-4-hydroxypyrrolidin-3-yl N-{2-[(2R)-pyrrolidin-2-yl]ethyl}carbamate]: the IC50 in the test with MYC (setting [1]) is less than 10 µM; in the test on CCND1 (IVTT assay), 10 to 20 µM; with CCNTB1 it was less than 10 µM.
As to `COc1ccc(C[C@H]2NC[C@H](O)[C@H]2OC(=O)NCCC2(N)CC2)cc1` [V191989, (2R,3S,4S)-4-hydroxy-2-(4-methoxybenzyl)pyrrolidin-3-yl (2-(1-aminocyclopropyl)ethyl)carbamate], the half-maximal inhibitory concentration (IC50) in the test with MYC (setting [1]), in the test with CCND1 (IVTT assay) and with CCNTB1 was less than 10 µM in each case.
As for `COc1ccc(C[C@H]2NC[C@H](O)[C@H]2OC(=O)NCCCCO)cc1` [V187586, (2R,3S,4S)-4-hydroxy-2-[(4-methoxyphenyl)methyl]pyrrolidin-3-yl N-(4-hydroxybutyl)carbamate], the 50% inhibitory concentration (IC50) in the test with CCND1 (2 hrs at 30° C.), in the test on ALK, in the test with MCL-1 and with KRAS G12D was less than 10 µM each time.
On to `C#CCNC(=O)O[C@@H]1[C@@H](O)CN[C@@H]1Cc1ccc(OC)cc1` [V0074, (2R,3S,4S)-4-hydroxy-2-[(4-methoxyphenyl)methyl]pyrrolidin-3-yl N-(prop-2-yn-1-yl)carbamate], for which the half-maximal inhibitory concentration (IC50) with MYC (sfGFP/mCherry ratio), with CCND1 (2 hrs at 30° C.), in the test on ALK and in the test on KRAS G12D was less than 10 µM each time.
Regarding `COc1ccc(C[C@H]2NC[C@H](O)[C@H]2OC(=O)NCCCN)cc1` [V187591], the half-inhibitory concentration (IC50) with MYC (sfGFP/mCherry ratio), in the test with CCND1 (2 hrs at 30° C.), in the test with ALK, in the test with MCL-1 and in the test on KRAS G12D was less than 10 µM throughout.
For the compound `O=C(NCC[C@H]1CCCN1)O[C@@H]1[C@@H](O)CN[C@@H]1Cc1ccc(-c2ccc(F)c(F)c2)cc1` [V192037, (2R,3S,4S)-2-({3′,4′-difluoro-[1,1′-biphenyl]-4-yl}methyl)-4-hydroxypyrrolidin-3-yl N-{2-[(2R)-pyrrolidin-2-yl]ethyl}carbamate], the values for the IC50 with MYC (setting [1]) and in the test with CCNTB1 were 10 to 20 µM and less than 10 µM, respectively.
Take `COc1ccc(C[C@H]2NC[C@H](O)[C@H]2OC(=O)NCCN2CCC3(CNC3)C2)cc1` [V187644, (2R,3S,4S)-4-hydroxy-2-[(4-methoxyphenyl)methyl]pyrrolidin-3-yl N-(2-{2,6-diazaspiro[3.4]octan-6-yl}ethyl)carbamate; trifluoroacetic acid]: the IC50 with MYC (sfGFP/mCherry ratio) is greater than 30 µM; with ALK it was 20 to 30 µM; in the test on KRAS G12D, greater than 30 µM.
Consider `COCCN(CCNC(=O)O[C@@H]1[C@H](O)CN[C@H]1Cc1ccc(OC)cc1)CCOC` [V187538, (2S,3S,4R)-4-hydroxy-2-[(4-methoxyphenyl)methyl]pyrrolidin-3-yl N-{2-[bis(2-methoxyethyl)amino]ethyl}carbamate; trifluoroacetic acid], for which the figures for the IC50 in the test with MYC (sfGFP/mCherry ratio), in the test with ALK and with KRAS G12D were 10 to 20 µM, less than 10 µM and greater than 30 µM, respectively.
